Laboratory results as given in PubChem BioAssay AID1845211 (Molecular Pharmacology Branch, DTP, NCI, 2023).

Test system: NCI-H322M multicellular tumor spheroids, viability (% test/control)
Assay: Anticancer human tumor NCI-H322M cell line growth inhibition;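 on viability, T/C: spheroids exposed to compound for seven days before readout; 100% = DMSO vehicle control wells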
Settings: for IC50: curve of first compound; for viability, T/C: stronger effect = lower value
Description: Multicellular complex tumor spheroid response to DNA repair inhibitors in combination with DNA-damaging drugs
This study explores the anticancer activities of DNA-damaging drugs and inhibitors of DNA damage repair, both as single agents and in combinations. Complex tumor spheroids comprised of malignant cells, endothelial cells and mesenchymal stem cells served as an in vitro model for human solid tumors. This model system incorporates physiologically relevant features and patient-derived or established malignant cell lines with clinically relevant genetic alterations from many tumor types. Twenty-six patient-derived or established malignant cell lines were evaluated representing sarcoma, melanoma, small cell lung cancer (SCLC), non-small cell lung cancer (NSCLC), as well as bladder, ovarian and pancreatic cancers. The concentration ranges selected for each drug and investigational agent were based upon clinically achievable concentrations if the clinical Cmax of the agent was known.
Compounds. The drugs and compounds olaparib (NSC753686), talazoparib (NSC767125), berzosertib (NSC777718), elimusertib (NSC800525), nedisertib (NSC802822), VX-984 (NSC792969), AZD-1390 (NSC803789), temozolomide (NSC362856), topotecan (NSC609699), trabectedin (NSC813783), staurosporine (NSC755774), and gemcitabine (NSC613327) were obtained from the National Cancer Institute (NCI) Developmental Therapeutics Program Chemical Repository. The FDA-approved anticancer drug set is available from the Developmental Therapeutics Program at https://dtp.cancer.gov/organization/dscb/obtaining/available_plates.htm. […] The stock solutions were prepared in dimethyl sulfoxide (DMSO, Sigma-Aldrich, St. Louis, MO, cat. D2650) at 400-fold the tested concentration and stored at -70 degrees C. Prior to their use, the stock solutions were diluted in fresh medium and the final DMSO concentration in the assay was 0.25% (v/v). All drugs and investigational agents were tested over a range starting from a high concentration at or near the clinical Cmax and decreasing in half-log increments. If the clinical Cmax for an agent had not been determined, the highest concentration tested was 10 microM.
Cell Lines. The patient-derived cancer cell (PDC) lines: 156681-154-R-J1-PDC, 283228-195-R-J1-PDC, 287954-098-R-J1-PDC, 292921-168-R-J2-PDC, 349418-098-R-PDC, 425362-245-T-J1-PDC, 556581-035-R-J1-PDC, and BL0293-F563-PDC were received from the NCI Patient-Derived Models Repository (PDMR, https://pdmr.cancer.gov). The established cell lines HS-SY-2 (RRID:CVCL_8719), MPNST, and SYO-1 (RRID:CVCL_7146) were obtained from the Sloan Kettering Institute. The alveolar soft parts sarcoma cell line ASPS-1 (RRID:CVCL_S738) was established at the NCI and grown from internal seed stocks. The following established cell lines were purchased from the American Type Culture Collection (ATCC, Manassas, VA): G-401 (ATCC, cat. CRL-1441, RRID:CVCL_0270), SW982 (ATCC, cat. HTB-93, RRID:CVCL_1734), VA-ES-BJ (ATCC, cat. CRL-2138, RRID:CVCL_1785), NCI-H719 (ATCC, cat. CRL-5837, RRID:CVCL_1582), NCI-H196 (ATCC, cat. CRL-5823, RRID:CVCL_1509), NCI-H841 (ATCC, cat. CRL-5845, RRID:CVCL_1595), NCI-H1618 (ATCC, cat. CRL-5879, RRID:CVCL_1480), NCI-H1876 (ATCC, cat. CRL-5902, RRID:CVCL_1503), DMS 114 (ATCC, cat. CRL-2066; RRID:CVCL_1174), NCI-H211 (ATCC, cat. CRL-5824; RRID:CVCL_1529), and SW 1271 (ATCC, cat. CRL-2177, RRID:CVCL_1716). The small cell lung cancer cell line COR-L88 was purchased from Sigma-Aldrich (cat. 92031917-1VL, RRID:CVCL_1141). The non-small cell lung cancer cell lines NCI-H226 (RRID:CVCL_1544) and NCI-H322M (RRID:CVCL_1557) were established at the NCI and grown from internal seed stocks. Pooled donor human umbilical vein endothelial cells (HUVEC, Lonza, cat. CC-2519) and human mesenchymal stem cells (hMSC, Lonza, cat. PT-2501) were purchased from Lonza (Walkersville, MD).
Cell Culture. All cells were maintained in an incubator at 37 degrees C and 5% CO2 with 95% humidity. […]

[1] = second compound 0.003 µM, first compound 0.0316 µM
[2] = second compound 0.003 µM, first compound 0.1 µM
[3] = second compound 0.003 µM, first compound 0.316 µM
[4] = second compound 0.003 µM, first compound 1 µM
[5] = second compound 0.003 µM, first compound 3.16 µM
[6] = second compound 0.003 µM, first compound 10 µM
[7] = second compound 0.00949 µM, first compound 0.0316 µM
[8] = second compound 0.00949 µM, first compound 0.1 µM
[9] = second compound 0.00949 µM, first compound 0.316 µM
[10] = second compound 0.00949 µM, first compound 1 µM
[11] = second compound 0.00949 µM, first compound 3.16 µM
[12] = second compound 0.00949 µM, first compound 10 µM
[13] = second compound 0.03 µM, first compound 0.0316 µM
[14] = second compound 0.03 µM, first compound 0.1 µM
[15] = second compound 0.03 µM, first compound 0.316 µM
[16] = second compound 0.03 µM, first compound 1 µM
[17] = second compound 0.03 µM, first compound 3.16 µM
[18] = second compound 0.03 µM, first compound 10 µM
[19] = second compound 0.0949 µM, first compound 0.0316 µM
[20] = second compound 0.0949 µM, first compound 0.1 µM
[21] = second compound 0.0949 µM, first compound 0.316 µM
[22] = second compound 0.0949 µM, first compound 1 µM
[23] = second compound 0.0949 µM, first compound 3.16 µM
[24] = second compound 0.0949 µM, first compound 10 µM
[25] = second compound 0.3 µM, first compound 0.0316 µM
[26] = second compound 0.3 µM, first compound 0.1 µM
[27] = second compound 0.3 µM, first compound 0.316 µM
[28] = second compound 0.3 µM, first compound 1 µM
[29] = second compound 0.3 µM, first compound 3.16 µM
[30] = second compound 0.3 µM, first compound 10 µM

COc1cc(C)[nH]c(=O)c1CN1CCc2c(Cl)cc(C(OC)C3COC3)c(Cl)c2C1=O (stereo not given) + CC[C@@]1(O)C(=O)OCc2c1cc1n(c2=O)Cc2cc3c(CN(C)C)c(O)ccc3nc2-1
IC50 (second compound 0.003 µM): > 10 µM
IC50 (second compound 0.00949 µM): > 10 µM
IC50 (second compound 0.03 µM): > 10 µM
IC50 (second compound 0.0949 µM): > 10 µM
IC50 (second compound 0.3 µM): 9.8 µM
viability, T/C [1]: 79.2%
viability, T/C [2]: 75.4%
viability, T/C [3]: 74.4%
viability, T/C [4]: 73.1%
viability, T/C [5]: 84.3%
viability, T/C [6]: 88%
viability, T/C [7]: 83.9%
viability, T/C [8]: 65.2%
viability, T/C [9]: 65.2%
viability, T/C [10]: 74%
viability, T/C [11]: 78.6%
viability, T/C [12]: 89.6%
viability, T/C [13]: 69%
viability, T/C [14]: 68.8%
viability, T/C [15]: 72.8%
viability, T/C [16]: 69.3%
viability, T/C [17]: 73.4%
viability, T/C [18]: 71.7%
viability, T/C [19]: 72%
viability, T/C [20]: 66.9%
viability, T/C [21]: 70.8%
viability, T/C [22]: 58.1%
viability, T/C [23]: 65.4%
viability, T/C [24]: 71.2%
viability, T/C [25]: 60.5%
viability, T/C [26]: 49.9%
viability, T/C [27]: 48.5%
viability, T/C [28]: 48.5%
viability, T/C [29]: 54.9%
viability, T/C [30]: 50.3%

Cc1cc(C)c(CNC(=O)c2cc(-c3ccc(CN4CCOCC4)cc3)cc3c2cnn3C2CCCC2)c(=O)[nH]1 + CC[C@@]1(O)C(=O)OCc2c1cc1n(c2=O)Cc2cc3c(CN(C)C)c(O)ccc3nc2-1
IC50 (second compound 0.003 µM): > 10 µM
IC50 (second compound 0.00949 µM): > 10 µM
IC50 (second compound 0.03 µM): > 10 µM
IC50 (second compound 0.0949 µM): > 10 µM
IC50 (second compound 0.3 µM): > 10 µM
viability, T/C [1]: 89%
viability, T/C [2]: 82.3%
viability, T/C [3]: 83.7%
viability, T/C [4]: 86.5%
viability, T/C [5]: 81.2%
viability, T/C [6]: 112%
viability, T/C [7]: 76.4%
viability, T/C [8]: 80.6%
viability, T/C [9]: 86.2%
viability, T/C [10]: 81.6%
viability, T/C [11]: 79.9%
viability, T/C [12]: 105%
viability, T/C [13]: 77.3%
viability, T/C [14]: 84.9%
viability, T/C [15]: 77.3%
viability, T/C [16]: 76.7%
viability, T/C [17]: 84.8%
viability, T/C [18]: 101%
viability, T/C [19]: 64.5%
viability, T/C [20]: 61.5%
viability, T/C [21]: 56.1%
viability, T/C [22]: 71.7%
viability, T/C [23]: 71.5%
viability, T/C [24]: 82.2%
viability, T/C [25]: 54.7%
viability, T/C [26]: 49.3%
viability, T/C [27]: 52.5%
viability, T/C [28]: 51.5%
viability, T/C [29]: 48.2%
viability, T/C [30]: 59.5%

[2H]c1nc(C)nc([2H])c1-c1cc(NC[C@@H](C)c2cccc3c(C(=O)NC)ccnc23)ncn1 + CC[C@@]1(O)C(=O)OCc2c1cc1n(c2=O)Cc2cc3c(CN(C)C)c(O)ccc3nc2-1
IC50 (second compound 0.003 µM): > 10 µM
IC50 (second compound 0.00949 µM): > 10 µM
IC50 (second compound 0.03 µM): > 10 µM
IC50 (second compound 0.0949 µM): > 10 µM
IC50 (second compound 0.3 µM): > 10 µM
viability, T/C [1]: 91.8%
viability, T/C [2]: 128%
viability, T/C [3]: 94.1%
viability, T/C [4]: 84.1%
viability, T/C [5]: 112%
viability, T/C [6]: 103%
viability, T/C [7]: 86.6%
viability, T/C [8]: 89.9%
viability, T/C [9]: 105%
viability, T/C [10]: 89.9%
viability, T/C [11]: 89.8%
viability, T/C [12]: 117%
viability, T/C [13]: 77.2%
viability, T/C [14]: 75.5%
viability, T/C [15]: 76.7%
viability, T/C [16]: 82.9%
viability, T/C [17]: 114%
viability, T/C [18]: 103%
viability, T/C [19]: 80.6%
viability, T/C [20]: 80.7%
viability, T/C [21]: 78.3%
viability, T/C [22]: 74.5%
viability, T/C [23]: 72.5%
viability, T/C [24]: 85.5%
viability, T/C [25]: 72.2%
viability, T/C [26]: 59%
viability, T/C [27]: 60.2%
viability, T/C [28]: 60.3%
viability, T/C [29]: 62.2%
viability, T/C [30]: 64.9%
